Laboratory results from PubChem BioAssay (NCI).
“And” between values parts separate entries of the source, which are not always exact repeats. Equal values may be shown once.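 Interpolation was linear, between the two tested concentrations surrounding the appropriate level; five concentrations were tested over 48 hours in 96-well plates. GI50 marks 50% less growth. TGI: total growth inhibition.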

Key:
Assay in all cases: NCI tumour cell line growth inhibition, 48 h
MDA-N = test system: MDA-N
DLD-1 colon = test system: DLD-1 colon
DMS 114 small cell lung = test system: DMS 114 small cell lung
DMS 273 small cell lung = test system: DMS 273 small cell lung
HOP-18 NSCLC = test system: HOP-18 NSCLC
KM20L2 colon = test system: KM20L2 colon
RXF-631 renal = test system: RXF-631 renal
SNB-78 CNS = test system: SNB-78 CNS
XF 498 CNS = test system: XF 498 CNS
P388/ADR leukemia = test system: P388/ADR leukemia

Compound | TGI (MDA-N) | TGI (DLD-1 colon) [µM] | TGI (DMS 114 small cell lung) [µM] | TGI (DMS 273 small cell lung) [µM] | TGI (HOP-18 NSCLC) | TGI (KM20L2 colon) | TGI (SNB-78 CNS) | TGI (XF 498 CNS) | other results
Cc1ccc(C)c2c(N=Nc3ccccc3[N+](=O)[O-])c(O)[nH]c12 | > 100 µM |  |  |  |  |  |  |  | 
NCCN1C(=O)c2ccccc2C1(O)c1ccc(Cl)cc1 (stereo not given) | 32.7 µM |  |  |  |  |  |  |  | 
Cc1cc2c(=O)cc(-c3ccc(F)cc3)oc2c(C(=O)O)c1C |  | > 100 | > 100 | > 100 | > 100 µM | > 100 µM | > 100 µM | > 100 µM | TGI (RXF-631 renal): > 100 µM
COc1cc2c(cc1O)C(c1cc(O)c(O)c(OC)c1)C(O)(C(=O)O)C(CO)C2O (stereo not given) | 30.9 µM |  |  |  |  |  |  |  | 
CC12CC(Sc3ccccc3N1)c1ccccc1O2 (stereo not given) |  | 28.9 | 29 | 30.2 | 31.6 µM | 34.6 µM | 42.6 µM | 30.2 µM | TGI (RXF-631 renal): 28.4 µM
O=[N+]([O-])c1ccc(COc2cccc3cccnc23)cc1 |  | 71.2 | 6.92 | 20.8 | > 100 µM | > 100 µM | > 100 µM | 67.5 µM | TGI (RXF-631 renal): 33.3 µM
Cc1cnc(SCCN2CCN(C)CC2)nc1-c1cc2ccccc2s1 |  | 25.4 | 20.5 | 18.1 |  |  | 32.5 µM |  | 
Oc1c2c(c(O)c3ccccc13)C1(N=N2)c2ccccc2Oc2ccccc21 | 21.8 µM |  |  |  |  |  |  |  | 
CCOP(=O)(CC(=O)C1=C(O)C(CCCCNC(=O)OC(C)(C)C)N(Cc2ccccc2)C1=O)OCC (stereo not given) |  | > 100 | > 100 | > 100 | > 100 µM | > 100 µM |  |  | 
CN1C(=O)C(=CN(C)c2ccccc2)C(=O)N(C)C1=O |  | > 100 | > 100 | > 100 | > 100 µM | > 100 µM | > 100 µM | > 100 µM | 
O=C1c2c(c3c4ccccc4[nH]c3c3[nH]c4ccccc4c23)C(=O)N1Cc1ccccc1 |  | 15.6 | 8.92 | 6.74 |  | 8.57 µM | 9.63 µM |  | TGI (RXF-631 renal): 6.53 µM
Cc1cc(NS(=O)(=O)c2ccc(NC(=O)COC(=O)c3cccc4c(=O)c5ccccc5[nH]c34)cc2)no1 |  | > 100 | > 100 | > 100 |  | > 100 µM | > 100 µM | > 100 µM | 
COC1=CC(=O)NCCN1 |  | > 100 | > 100 | > 100 | > 100 µM | > 100 µM | > 100 µM | > 100 µM | TGI (RXF-631 renal): > 100 µM
Cc1cc(C)c(C(=O)/C=C/c2ccccc2)c(C)c1 |  | 68.9 | 88.3 |  | > 100 µM | 96.9 µM |  | 26.5 µM | 
CC(C)(C)N=CN(C=C(c1ccccc1)c1ccccc1)C1CCCCC1 |  | > 100 | 55.3 | > 100 | > 100 µM | 46.7 µM | > 100 µM | 56.8 µM | 
NC(CO)C(=O)NCC(=O)O (stereo not given) | > 100 µM |  |  |  |  |  |  |  | 
CC(=O)NC1=C(Sc2ccc(Cl)cc2)C(=O)c2ccccc2C1=O | 3.17 µM |  |  |  |  |  |  |  | 
C#CC(=O)OCC#CCOC(=O)C#C | > 100 µM |  |  |  |  |  |  |  | 
Cc1cc(NS(=O)(=O)c2ccc(Nc3c4ccccc4nc4c(C(=O)Nc5ccc(S(=O)(=O)N=C(N)N)cc5)ccc(Cl)c34)cc2)no1 |  | > 100 | 68.9 | > 100 | > 100 µM | > 100 µM | 97.7 µM | 90.9 µM | 
Brc1ccc(C2SCc3nc4ccccc4n32)cc1 (stereo not given) |  | 22.3 |  |  | 78.5 µM |  | 22.5 µM | 24.5 µM | 

Compound | TGI (MDA-N) | TGI (DLD-1 colon) [µM] | TGI (DMS 114 small cell lung) [µM] | TGI (DMS 273 small cell lung) [µM] | TGI (HOP-18 NSCLC) | TGI (KM20L2 colon) | TGI (SNB-78 CNS) | TGI (XF 498 CNS) | other results
Clc1ccc(C2=NOC3C4CCC(C4)C23)cc1 (stereo not given) |  | > 100 |  | > 100 | > 100 µM |  | > 100 µM |  | 
C#C/C=C/CC1OC(C(Br)CC)CC(Br)C2CC1O2 (stereo not given) | > 100 µM |  |  |  |  |  |  |  | 
COc1cc2ccc(CC(N)=O)cc2cc1OC |  |  | > 100 | > 100 | > 100 µM | > 100 µM | > 100 µM | > 100 µM | TGI (RXF-631 renal): > 100 µM
CCCCCCCCCCCCCCNCC(OCC)OCC |  | 28.3 | 25.7 |  | 30.3 µM | 24.9 µM | 33.5 µM | 27.4 µM | 
Clc1cccc2c1OCC1C(c3ccccc3)=NN(c3ccccc3)C21 (stereo not given) |  | > 100 | > 100 | > 100 | > 100 µM | > 100 µM | > 100 µM | > 100 µM | TGI (RXF-631 renal): > 100 µM
O=S(=O)(NCCO)c1cc[c]([Sb](=[O])([OH])[OH])cc1 | > 100 µM |  |  |  |  |  |  |  | GI50 (MDA-N): > 100 µM
Cc1ccc2c(CC(=O)O)cc(=O)oc2c1 |  | > 100 | > 100 | > 100 | > 100 µM | > 100 µM |  | 9.18 µM | 
O=c1cc(O)c2c(O)cc(O)cc2o1 | > 100 µM |  |  |  |  |  |  |  | 
O=C1N[C@H]2[C@H](O)[C@H](O)[C@@H](O)[C@H](O)[C@@H]2c2cc3c(c(O)c21)OCO3 | 0.185 µM and 0.128 µM | 0.422 |  | 0.466 | 0.653 µM | 3.06 µM |  |  | GI50 (DLD-1 colon): 0.282 µM and 1.94 µM; GI50 (DMS 114 small cell lung): 0.241 µM and 0.604 µM; GI50 (DMS 273 small cell lung): 3.09 µM; GI50 (HOP-18 NSCLC): 0.377 µM and 1.99 µM; GI50 (KM20L2 colon): 0.35 µM and 1.76 µM; GI50 (MDA-N): 0.025 µM; TGI (P388/ADR leukemia): 0.21 µM; GI50 (RXF-631 renal): 0.288 µM; TGI (RXF-631 renal): 4.33 µM; GI50 (SNB-78 CNS): 0.248 µM and 2.04 µM; GI50 (XF 498 CNS): 0.25 µM and 1.24 µM
C/C=C1\CCC2c3[nH]c4ccccc4c3CCN2C1 (stereo not given) |  | > 100 | > 100 | > 100 |  | > 100 µM | > 100 µM | > 100 µM | 
COC[C@@H](N=CN1CCc2cc(OC)c(OC)cc2C1)C(C)(C)C |  | > 100 | > 100 |  | > 100 µM | > 100 µM |  | > 100 µM | TGI (RXF-631 renal): > 100 µM
COc1ccc2c(c1)CCN1C3=C(CCC3)C(=O)C[C@@H]21 |  |  | > 100 | > 100 | > 100 µM | > 100 µM | > 100 µM | > 100 µM | 
CCCC#CCOC(=O)c1cc([N+](=O)[O-])cc([N+](=O)[O-])c1 | > 100 µM |  |  |  |  |  |  |  | 
COc1cc2c(cc1OC)[C@@H]([C@H](O)c1ccccc1)NCC2 |  | > 100 | > 100 | > 100 | > 100 µM | > 100 µM | > 100 µM | > 100 µM | TGI (RXF-631 renal): > 100 µM
Nc1ncnc2nn(C3OC(CO)C(O)C3O)nc12 (stereo not given) | > 82.6 µM |  |  |  |  |  |  |  | 
C[C@@](O)(/C=C/[C@H]1CC=CC(=O)O1)[C@@H](C[C@@H](O)\C=C/C=C\C=C\CO)OP(=O)(O)O | 8.08 µM | 95.9 | 82.6 | 167 | 28.5 µM and 127 µM | 6.55 µM and 3.17 µM | 60.8 µM and > 58.8 µM | 101 µM and 113 µM | GI50 (HOP-18 NSCLC): 15.9 µM and 42.2 µM; GI50 (KM20L2 colon): 1.32 µM; GI50 (P388/ADR leukemia): 0.963 µM and 0.989 µM; GI50 (SNB-78 CNS): 11.3 µM
Cc1cc2c(=O)[nH]c(N)nc2nc1C | > 100 µM |  |  |  |  |  |  |  | 
O=C1CCC2(c3ccccc3)Nc3ccc(Cl)cc3N12 (stereo not given) |  | > 100 | > 100 |  |  | > 100 µM | > 100 µM | > 100 µM | TGI (RXF-631 renal): > 100 µM
CC/C(CC(=O)CCC(=O)Nc1ccc(C)c(C)c1)=N\NC(=O)C(N)=O |  | > 100 | > 100 | > 100 | > 100 µM | > 100 µM | > 100 µM | > 100 µM | 
